# In patent US11267791B2 (F.I.S.—FABBRICA ITALIANA SINTETICI S.P.A., priority 2018, dated 2022):
# Structures can show the parent of a compound that is named as a salt.
# Key:
# [1] = Hygroscopicity study by DVS (Dynamic Vapour Sorption); type: physicochemical; settings: 25° C.; for humidity adsorbed (water uptake) / hygroscopicity (water uptake): at 95% RH
# Method: Hygroscopicity study was determined by DVS (Dynamic Vapour Sorption) with a Q5000 TA instrument. This is a gravimetric technique that measures how much water is absorbed or desorbed by a sample at different relative humidity (RH). At each RH, the sample mass must be allowed to reach gravimetric equilibrium (or surpassed time limit) before progressing to the next humidity level. Sorption and desorption isotherms were performed at 25° C. over a range of 0-95% RH. The samples gently milled were not previously dried but they were exposed to 0% RH until a stable weight was reached before starting the DVS cycle. This equilibration step allows possible adsorbed humidity to be eliminated.
# [2] = Preliminary stability in water at RT, slurry analysed by XRPD; type: physicochemical; settings: XRPD at 1, 3, 6 and 24 h
# Method: A preliminary test stability study in water at RT of 4 ETP monoethanolamine salt Forms was performed in order to observed possible crystalline transitions. A sample of each crystalline form was slurried in water at RT and periodically analysed by XRPD (1, 3, 6 and 24 h) in order to detect possible crystalline transformation.
# [3] = Crystalline stability of Form D1 under accelerated ICH guideline conditions, XRPD; type: physicochemical
# Source text: This sample was periodically analysed by XRPD in order to observe possible crystalline transformation or amorphization. Moreover, a sample of ETP monoethanolamine salt Form D1 stored on a XRPD silicon holder was exposed in a climatic chamber. It is worth noting that these stability conditions are harsher than standard stability conditions due to the high surface of exposition of the solid stored on the XRPD silicon holder. The samples were periodically analysed by XRPD to observe possible crystalline transformation.
# [4] = Relative thermodynamic solubility in water at RT by HPLC; type: physicochemical
# Method: The relative solubility of the above mentioned 4 ETP monoethanolamine salt Forms was studied in water at RT. The validity of any solubility measurement requires that the crystalline form must remain stable with respect to any phase conversion taking place during the determination of the equilibrium solubility.
# This suspension was stirred 24 h at RT in order to reach the equilibrium. Then, a sample was filtered and the resulting filtrate was analysed by HPLC by duplicate. The average peak area of ETP gave a relative value of the thermodynamic solubility of each form that can be compared with each other. The solids recovered after filtration were also analysed by XRPD to check that no crystalline phase transformation occurred during the slurring.
# HPLC ETP peak area in each of the different forms analysed was measured in order to establish their relative solubility. The HPLC analyses were performed by duplicate for each ETP monoethanolamine salt.
# [5] = cited from earlier work
# [6] = Stability study of Form E, atmospheric and ICH accelerated conditions, XRPD; type: physicochemical; settings: after 1 day of exposition
# Method: In the first ETP monoethanolamine salt Form E was exposed to atmospheric conditions for 1 day was unstable, and a new form very similar to Form II (ETP bisethanolamine salt) described in U.S. Pat. No. 8,372,822B2 was recovered according to XRPD analysis. In the second ETP monoethanolamine salt Form E was exposed to ICH guideline accelerated conditions (40° C./75 RH %). Under these conditions, Form E converted partially to a new unknown form.
compound,measurement,setting,value
Eltrombopag monoethanolamine salt [Form H],humidity adsorbed (water uptake),[1],up to 1.4 % w/w
same,hygroscopicity (water uptake),[1],1.4 w/w
same,crystalline stability slurried in water,[2],remained stable
"CC1=NN(c2ccc(C)c(C)c2)C(=O)/C1=N\Nc1cccc(-c2cccc(C(=O)O)c2)c1O [Form D1, Eltrombopag monoethanolamine salt]",humidity adsorbed (water uptake),[1],less than 0.2 % w/w
same,crystalline stability in words,[3]; 2 months study period,remained stable
same,period the crystalline form remains stable,[3]; T=40° C./75±5% RH (chamber 45±2° C.-75±5% RH),at least 2 months
same,Intensity test average,"[4]; average of solubility tests #1 and #2, HPLC ETP peak area",2911
same,Solubility test #1 (area counts),"[4]; saturated water solution, 24 h at RT, HPLC ETP peak area",2722 area counts
same,Solubility test #2 (area counts),"[4]; saturated water solution, 24 h at RT, HPLC ETP peak area, repeat",3100 area counts
same,crystalline stability slurried in water,[2],remained stable
"CC1=NN(c2ccc(C)c(C)c2)C(=O)/C1=N\Nc1cccc(-c2cccc(C(=O)O)c2)c1O [Eltrombopag olamine, Eltrombopag bisethanolamine salt]",thermally stable up to,[5]; at higher temperature endothermic reaction associated with degradation,about 125 °C
same,solubility in water,[5],sparingly soluble
Eltrombopag monoethanolamine salt [Form E],"result of stability study, crystalline form by XRPD","[6]; 40° C./75 RH %, ICH accelerated",partial conversion to a new form with a main peak at 8.6° (2θ)
same,"result of stability study, crystalline form by XRPD",[6]; atmospheric conditions,Form II+one peak at 8.6° (2θ)
Eltrombopag monoethanolamine salt [Form D],hygroscopicity in words,"[1]; up to 85% RH, listed as ETP monoethanolamine salt Form D",not hygroscopic
Eltrombopag monoethanolamine salt [Form H2],hygroscopicity (water uptake),[1]; listed as ETP monoethanolamine salt Form H2,0.6 w/w
